The source of these data is patent US20160159814A1, “GLYCINE TRANSPORTER INHIBITOR” (TAISHO PHARMACEUTICAL CO., LTD., priority 2013, published 2016).

One assay deals with T1, human type 1 glycine transporter (GlyT1) (Homo sapiens, UniProt P48067).
T1 construct: T98G cells (glioma cells) expressing human type 1 glycine transporter (GlyT1) were used; endogenous in cells; host or cells: T98G cells (human glioma cells)
T1 sequence (P48067 1-706): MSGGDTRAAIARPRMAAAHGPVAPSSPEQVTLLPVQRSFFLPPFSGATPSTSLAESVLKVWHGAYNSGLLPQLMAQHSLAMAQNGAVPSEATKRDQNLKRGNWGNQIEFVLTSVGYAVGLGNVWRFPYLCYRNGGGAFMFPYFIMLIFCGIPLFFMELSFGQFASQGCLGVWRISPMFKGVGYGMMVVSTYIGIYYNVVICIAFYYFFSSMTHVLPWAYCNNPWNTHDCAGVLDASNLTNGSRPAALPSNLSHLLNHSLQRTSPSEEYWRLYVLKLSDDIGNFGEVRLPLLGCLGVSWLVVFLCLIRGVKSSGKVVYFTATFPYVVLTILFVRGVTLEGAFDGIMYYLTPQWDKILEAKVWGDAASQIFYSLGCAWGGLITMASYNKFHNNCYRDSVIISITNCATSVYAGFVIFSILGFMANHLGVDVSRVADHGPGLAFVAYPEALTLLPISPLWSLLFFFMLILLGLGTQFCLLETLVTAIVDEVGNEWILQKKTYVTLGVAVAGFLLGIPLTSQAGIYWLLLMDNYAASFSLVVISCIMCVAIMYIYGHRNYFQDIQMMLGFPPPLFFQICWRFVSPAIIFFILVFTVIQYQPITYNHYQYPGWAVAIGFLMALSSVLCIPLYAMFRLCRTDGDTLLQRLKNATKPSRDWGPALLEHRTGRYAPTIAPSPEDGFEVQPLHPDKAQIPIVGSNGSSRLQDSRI
Kind of assay: Glycine uptake inhibition experiment ([3H] glycine uptake in T98G cells expressing GlyT1).
Conditions: not given
The assay is classed as cell-based. The gist of the method:
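T98G glioma cells expressing human GlyT1 were pretreated 10 min with compound in HEPES buffer pH 7.4 (0.2% BSA), then incubated with compound plus 250 nM final [3H]glycine for 15 min at room temperature. Intracellular radioactivity was counted after NaOH lysis; 10 μM ALX5407 defined non-specific uptake. IC50 came from 10^−9–10^−5 M curves.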
As to `COc1nc(CN2C(=O)C(F)(F)c3c([C@H](C)O)cccc32)ccc1F` [Compound 246, 3,3-difluoro-1-[(5-fluoro-6-methoxypyridin-2-yl)methyl]-4-[(1S)-1-hydroxyethyl]-1,3-dihydro-2H-indol-2-one], the IC50 (usually the midpoint of a concentration-inhibition curve) is 55 nM.
`CC(O)c1c(F)ccc2c1C(F)(F)C(=O)N2Cc1cncc(Cl)c1` (single isomer, unassigned) [Compound 181, 1-[(5-chloropyridin-3-yl)methyl]-3,3,5-trifluoro-4-(1-hydroxyethyl)-1,3-dihydro-2H-indol-2-one]: the IC50 was 310 nM.
On to `C[C@H](O)c1cccc2c1C(F)(F)C(=O)N2Cc1ncccc1C(F)(F)F` [Compound 227, 3,3-difluoro-4-[(1S)-1-hydroxyethyl]-1 {[3-(trifluoromethyl)pyridin-2-yl]methyl)-1,3-dihydro-2H-indol-2-one], for which the IC50 stood at 380 nM.
In turn, `C[C@H](O)c1cccc2c1C(F)(F)C(=O)N2Cc1cc(C#N)ncc1Cl` [Compound 195, 5-chloro-4-({3,3-difluoro-4-[(1S)-1-hydroxyethyl]-2-oxo-2,3-dihydro-1H-indol-1-yl}methyl)pyridine-2-carbonitrile] came in with an IC50 of 42 nM.
`C[C@H](O)c1cccc2c1C(F)(F)C(=O)N2Cc1cncc(C2CC2)c1` [Compound 174, 1-[(5-cyclopropylpyridin-3-yl)methyl]-3,3-difluoro-4-[(1S)-1-hydroxyethyl]-1,3-dihydro-2H-indol-2-one] gave an IC50 of 95 nM.
In turn, `C[C@H](O)c1cccc2c1C(F)(F)C(=O)N2Cc1cnc(Cl)c(Cl)c1` [Compound 200, 1-[(5,6-dichloropyridin-3-yl)methyl]-3,3-difluoro-4-[(1S)-1-hydroxyethyl]-1,3-dihydro-2H-indol-2-one] showed an IC50 of 8.6 nM.
The compound `C[C@H](O)c1cccc2c1C(F)(F)C(=O)N2Cc1ccnc(OC(F)F)c1` [Compound 194, 1-{[2-(difluoromethoxy)pyridin-4-yl]methyl}-3,3-difluoro-4-[(1S)-1-hydroxyethyl]-1,3-dihydro-2H-indol-2-one] returned an IC50 of 43 nM.
Compound `O=C1N(Cc2ccc(C(F)(F)F)cn2)c2cccc(C(O)C(F)F)c2C1(F)F` (single isomer, unassigned) [Compound 169] returned an IC50 of 56 nM.
The compound `C[C@H](O)c1cccc2c1C(F)(F)C(=O)N2Cc1cnc(Cl)c(C#N)c1` [Compound 251, 2-chloro-5-({3,3-difluoro-4-[(1S)-1-hydroxyethyl]-2-oxo-2,3-dihydro-1H-indol-1-yl)methyl)pyridine-3-carbonitrile] gave an IC50 of 20 nM.
Turning to `O=C1N(Cc2cc(C(F)(F)F)ccn2)c2cccc(C(O)C(F)F)c2C1(F)F` (single isomer, unassigned) [Compound 159, 4-(2,2-difluoro-1-hydroxyethyl)-3,3-difluoro-1-{[4-(trifluoromethyl)pyridin-2-yl]methyl}-1,3-dihydro-2H-indol-2-one], the IC50 is 53 nM.

Staying with this assay, now noted: glycine uptake inhibition.
In the case of `O=C1N(Cc2cnc3ccccc3c2)c2cccc(C(O)C(F)F)c2C1(F)F` (single isomer, unassigned) [Compound 143, 4-(2,2-difluoro-1-hydroxyethyl)-3,3-difluoro-1-(quinolin-3-ylmethyl)-1,3-dihydro-2H-indol-2-one], the IC50 turned out to be 48 nM.
Turning to `C[C@H](O)c1cccc2c1C(F)(F)C(=O)N2Cc1cc2ccccc2c(=O)[nH]1` [Compound 99, 3-({3,3-difluoro-4-[(1S)-1-hydroxyethyl]-2-oxo-2,3-dihydro-1H-indol-1-yl}methyl) isoquinolin-1(2H)-one], it took 48 nM to reach half-maximal inhibition (IC50).
As to `O=C1N(Cc2ccnc(Cl)c2)c2cccc([C@H](O)C(F)(F)F)c2C1(F)F` [Compound 31, 1-[(2-chloropyridin-4-yl)methyl]-3,3-difluoro-4-[(1S)-2,2,2-trifluoro-1-hydroxyethyl]-1,3-dihydro-2H-indol-2-one], inhibition was half-maximal at 350 nM (IC50).
In turn, `O=C1N(Cc2ccnc(C(F)F)c2)c2cccc([C@@H](O)C(F)(F)F)c2C1(F)F` [Compound 139, 1-[[2-(difluoromethyl)pyridin-4-yl]methyl]-3,3-difluoro-4-[(1R)-2,2,2-trifluoro-1-hydroxyethyl]-1,3-dihydro-2H-indol-2-one] registered an IC50 of 45 nM.
Consider `C[C@H](O)c1cccc2c1C(F)(F)C(=O)N2Cc1ccc2nccnc2c1` [Compound 46, 3,3-difluoro-4-[(1S)-1-hydroxyethyl]-1-(quinoxalin-6-ylmethyl)-1,3-dihydro-2H-indol-2-one], for which 140 nM corresponded to half-maximal inhibition (IC50).
On to `N#Cc1cc(CN2C(=O)C(F)(F)c3c(C(O)C(F)(F)F)cccc32)ccn1` (single isomer, unassigned) [Compound 20, 4-{[3,3-difluoro-2-oxo-4-(2,2,2-trifluoro-1-hydroxyethyl)-2,3-dihydro-1H-indol-1-yl]methyl}pyridine-2-carbonitrile], for which the IC50 was determined as 2900 nM.
Turning to `C[C@H](O)c1cccc2c1C(F)(F)C(=O)N2Cc1nc2ccccc2n(C)c1=O` [Compound 101, 3-({3,3-difluoro-4-[(1S)-1-hydroxyethyl]-2-oxo-2,3-dihydro-1H-indol-1-yl}methyl)-1-methylquinoxalin-2(1H)-one], the IC50 was 41 nM.
Regarding `C[C@H](O)c1cccc2c1C(F)(F)C(=O)N2Cc1cc(F)ccn1` [Compound 97, 3,3-difluoro-1-[(4-fluoropyridin-2-yl)methyl]-4-[(1S)-1-hydroxyethyl]-1,3-dihydro-2H-indol-2-one], half-maximal inhibition (IC50) required 91 nM.
`CC(O)c1cccc2c1C(F)(F)C(=O)N2Cc1cncc(Cl)c1` (centres unmarked) [Compound 3, 1-[(5-chloropyridin-3-yl)methyl]-3,3-difluoro-4-(1-hydroxyethyl)-1,3-dihydro-2H-indol-2-one] registered an IC50 of 32 nM.
`O=C1N(Cc2nc3ccccc3[nH]c2=O)c2cccc([C@@H](O)C(F)(F)F)c2C1(F)F` [Compound 140, 3-({3,3-difluoro-2-oxo-4-[(1R)-2,2,2-trifluoro-1-hydroxyethyl]-2,3-dihydro-1H-indol-1-yl}methyl) quinoxalin-2(1H)-one] gave an IC50 of 33 nM.
With `C[C@H](O)c1cccc2c1C(F)(F)C(=O)N2Cc1cnc2ccccc2c1` [Compound 74, 3,3-difluoro-4-[(1S)-1-hydroxyethyl)-1-(quinolin-3-ylmethyl)-1,3-dihydro-2H-indol-2-one], the IC50 was determined as 39 nM.
In turn, `C[C@H](O)c1cccc2c1C(F)(F)C(=O)N2Cc1cc(C#N)ccn1` [Compound 85, 2-({3,3-difluoro-4-[(1S)-1-hydroxyethyl]-2-oxo-2,3-dihydro-1H-indol-1-yl}methyl)pyridine-4-carbonitrile] showed an IC50 of 420 nM.
In turn, `C[C@H](O)c1cccc2c1C(F)(F)C(=O)N2Cc1cncc(C(F)(F)F)c1` [Compound 121] had an IC50 of 39 nM.
Compound `C[C@H](O)c1cccc2c1C(F)(F)C(=O)N2Cc1cccc(-n2cncn2)n1` [Compound 62, 3,3-difluoro-4-[(1S)-1-hydroxyethyl]-1-{[6-(1H-1,2,4-triazol-1-yl)pyridin-2-yl]methyl}-1,3-dihydro-2H-indol-2-one] yielded an IC50 of 230 nM.
For the compound `C[C@H](O)c1cccc2c1C(F)(F)C(=O)N2Cc1cc(Br)ccn1` [Compound 123, 1-[(4-bromopyridin-2-yl)methyl]-3,3-difluoro-4-[(1S)-1-hydroxyethyl]-1,3-dihydro-2H-indol-2-one], it took 22 nM to reach half-maximal inhibition (IC50).
In turn, `O=C1N(Cc2cncc(Cl)c2)c2cccc(C(O)C(F)(F)F)c2C1(F)F` (centres unmarked) [Compound 17, 1-[(5-chloropyridin-3-yl)methyl]-3,3-difluoro-4-(2,2,2-trifluoro-1-hydroxyethyl)-1,3-dihydro-2H-indol-2-one] had an IC50 of 72 nM.
For the compound `O=C1N(Cc2cc(Cl)ccn2)c2cccc(C(O)C(F)F)c2C1(F)F` (single isomer, unassigned) [Compound 146, 1-[(4-chloropyridin-2-yl)methyl]-4-(2,2-difluoro-1-hydroxyethyl)-3,3-difluoro-1,3-dihydro-2H-indol-2-one], the midpoint of inhibition, the IC50, lay at 61 nM.
`O=C1N(Cc2cncc(Cl)c2)c2cccc(C(O)C(F)(F)F)c2C1(F)F` (single isomer, unassigned) [Compound 23, 1-[(5-chloropyridin-3-yl)methyl]-3,3-difluoro-4-(2,2,2-trifluoro-1-hydroxyethyl)-1,3-dihydro-2H-indol-2-one] showed an IC50 of 38 nM.

The assay is the same for the next values; noted with them: table section whose head prints (μm).
Take `O=C1N(Cc2cc(C(F)(F)F)c(Cl)cn2)c2cccc(C(O)C(F)F)c2C1(F)F` (single isomer, unassigned) [Compound 268, 1-{[5-chloro-4-(trifluoromethyl)pyridin-2-yl]methyl)-4-(2,2-difluoro-1-hydroxyethyl)-3,3-difluoro-1,3-dihydro-2H-indol-2-one]: the IC50 was found to be 16 nM.
